Biological target: human mGluR2 (Homo sapiens (Human), UniProt Q14416)
Assay: MGluR2 cAMP assay
Assay type: cell-based
Details: HEK293 cells clonally expressing human mGluR2, 1 μM forskolin, 1 μM LY-341495
Method: Clonally expressed human mGluR2 in HEK293 background was glutamate starved overnight in media without glutamine (GIBCO MEM 12360), containing 10% FBS, 1% penicillin streptomycin.
On the day of the assay, media was removed, cells washed with PBS, cells harvested and pelleted by centrifugation. Cell pellets were resuspended in stimulation buffer without forskolin and counted. A solution of 1.25×10^6 cells/ml was prepared and dispensed to plates using a Combi liquid handler (Thermo). A standard curve was created using a top concentration of cAMP of 1 μM in the stimulation buffer, 1:3 dilutions over 14 points in the absence of cells. Plates were read by time-resolved fluorescence at […] and a ratio was calculated via in house software, (665 nM/618 nM)*10^4. In house software converted the fluorescence value ratios to units of cAMP concentration, which is then used to calculate % inhibition for each test compound.
Compounds were added to white, standard volume 384 non-binding surface plates (Corning 3574). Cells were resuspended in stimulation buffer consisting of Hanks Balanced Salt Solution (14175-095) pH 7.0, 20 mM HEPES, 2.0 mM CaCl2, 5.0 mM MgCl2, and 1 mM IBMX (Sigma 15879), 1 μM forskolin, and 1 μM LY-341495, for 30 minutes. Buffer without forskolin was used as a negative control. Solutions of D2 and cryptate detection reagents from the CISBIO dynamic cAMP kit (62AM4PEJ) were diluted 1:40 in lysis buffer. Lysis buffer consisted of 50 mM Phosphate Buffer pH 7.0, 800 mM Potassium Fluoride, 0.2% BSA, and 1.0% Triton. Assay reaction was terminated by addition of detection reagents in lysis buffer. One hour later, plates were read on a PE Viewlux. Data was extracted, and concentration response curves generated by fitting the data to a standard 4 parameter logistic equation from which EC50 values were determined See table 1: A: <10 nM; B: 10-100 nM; C: 100-1000 nM; D: 1000-10000 nM.

human mGluR2, sequence (Q14416 19-872): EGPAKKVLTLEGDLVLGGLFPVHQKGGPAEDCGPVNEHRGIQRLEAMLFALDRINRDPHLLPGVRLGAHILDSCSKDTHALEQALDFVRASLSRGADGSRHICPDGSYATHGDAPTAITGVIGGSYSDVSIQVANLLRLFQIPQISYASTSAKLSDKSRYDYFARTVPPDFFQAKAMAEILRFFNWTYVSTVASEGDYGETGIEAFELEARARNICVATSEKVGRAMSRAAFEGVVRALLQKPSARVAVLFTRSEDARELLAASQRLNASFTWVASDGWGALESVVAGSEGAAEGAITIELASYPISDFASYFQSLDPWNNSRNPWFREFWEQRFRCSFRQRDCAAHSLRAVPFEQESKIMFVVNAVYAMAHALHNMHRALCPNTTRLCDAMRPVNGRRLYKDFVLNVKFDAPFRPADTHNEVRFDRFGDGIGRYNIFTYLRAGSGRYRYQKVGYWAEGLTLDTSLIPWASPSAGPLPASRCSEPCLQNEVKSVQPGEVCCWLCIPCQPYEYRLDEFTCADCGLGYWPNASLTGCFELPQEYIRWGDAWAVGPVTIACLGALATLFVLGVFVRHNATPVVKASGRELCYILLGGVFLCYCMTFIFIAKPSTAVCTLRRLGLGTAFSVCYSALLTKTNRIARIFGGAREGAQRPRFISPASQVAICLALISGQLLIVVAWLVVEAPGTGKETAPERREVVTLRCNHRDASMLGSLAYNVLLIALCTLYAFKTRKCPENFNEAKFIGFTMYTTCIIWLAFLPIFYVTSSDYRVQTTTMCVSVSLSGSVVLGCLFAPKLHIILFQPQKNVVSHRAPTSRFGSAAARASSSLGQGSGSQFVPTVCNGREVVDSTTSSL

SMILES	EC50 [nM]
COc1ccc(OC)c(C2CCN(c3cnn4c(CC(F)(F)F)nnc4c3Cl)CC2)c1 [Example 36, 8-Chloro-7-(4-(2,5-dimethoxyphenyl)piperidin-1-yl)-3-(2,2,2-trifluoroethyl)-[1,2,4]triazolo[4,3-b]pyridazine]	7
COc1cccc(F)c1C1CC1CNc1cnn2c(CC3CC3)nnc2c1Cl (centres unmarked) [Example 39, 8-Chloro-3-(cyclopropylmethyl)-N-((2-(2-fluoro-6-methoxyphenyl)cyclopropyl)methyl)-[1,2,4]triazolo[4,3-b]pyridazin-7-amine]	28
Clc1c(N2CCC(c3ccncc3)CC2)cnn2c(CC3CC3)nnc12 [Example 41, 8-Chloro-3-(cyclopropylmethyl)-7-(4-(pyridin-4-yl)piperidin-1-yl)-[1,2,4]triazolo[4,3-b]pyridazine]	275
COc1cccc(F)c1C1CCN(c2cnn3c(CC4CC4)nnc3c2Cl)CC1 [Example 22, 8-Chloro-3-(cyclopropylmethyl)-7-(4-(2-fluoro-6-methoxyphenyl)piperidin-1-yl)-[1,2,4]triazolo[4,3-b]pyridazine]	3
Fc1ccc(N2CCN(c3cnn4c(CC5CC5)nnc4c3Cl)CC2)cc1 [Example 19, 8-Chloro-3-(cyclopropylmethyl)-7-(4-(4-fluorophenyl)piperazin-1-yl)-[1,2,4]triazolo[4,3-b]pyridazine]	614
Clc1c(N2CCC(c3ccccc3)CC2)ncn2c(CC3CC3)nnc12 [Example 1, 8-Chloro-3-(cyclopropylmethyl)-7-(4-phenylpiperidin-1-yl)-[1,2,4]triazolo[4,3-c]pyrimidine]	8
Fc1cc(F)c(OC(F)F)c(C2CCN(c3cnn4c(CC5CC5)nnc4c3Cl)CC2)c1 [Example 54, 8-Chloro-3-(cyclopropylmethyl)-7-(4-(2-(difluoromethoxy)-3,5-difluorophenyl)piperidin-1-yl)-[1,2,4]triazolo[4,3-b]pyridazine]	10
CCN(CC1CC1c1ccc(F)cc1)c1cnn2c(CC3CC3)nnc2c1Cl (centres unmarked) [Example 49, 8-Chloro-3-(cyclopropylmethyl)-N-ethyl-N-((2-(4-fluorophenyl)cyclopropyl)methyl)-[1,2,4]triazolo[4,3-b]pyridazin-7-amine]	425
Clc1c(N2CCN(c3ncccn3)CC2)cnn2c(CC3CC3)nnc12 [Example 15, 8-Chloro-3-(cyclopropylmethyl)-7-(4-(pyrimidin-2-yl)piperazin-1-yl)-[1,2,4]triazolo[4,3-b]pyridazine]	280
COc1cc(OC)nc(C2CCN(c3cnn4c(CC5CC5)nnc4c3Cl)CC2)n1 [Example 42, 8-Chloro-3-(cyclopropylmethyl)-7-(4-(4,6-dimethoxypyrimidin-2-yl)piperidin-1-yl)-[1,2,4]triazolo[4,3-b]pyridazine]	11
Clc1c(N2CCC3(C=Cc4ccccc43)CC2)cnn2c(CC3CC3)nnc12 [Example 20, 8-Chloro-3-(cyclopropylmethyl)-7-(spiro[indene-1,4′-piperidin]-1′-yl)-[1,2,4]triazolo[4,3-b]pyridazine]	145
FC(F)(F)Cc1nnc2c(Cl)c(N3CCC(c4ccccc4)CC3)cnn12 [Example 56, 8-Chloro-7-(4-phenylpiperidin-1-yl)-3-(2,2,2-trifluoroethyl)-[1,2,4]triazolo[4,3-b]pyridazine]	62
COc1ccccc1C1CCN(c2cnn3c(CC4CC4)nnc3c2Cl)CC1 [Example 27, 8-Chloro-3-(cyclopropylmethyl)-7-(4-(2-methoxyphenyl)piperidin-1-yl)-[1,2,4]triazolo[4,3-b]pyridazine]	9
Fc1ccccc1C1CCN(c2cnn3c(CC(F)(F)F)nnc3c2Cl)CC1 [Example 25, 8-Chloro-7-(4-(2-fluorophenyl)piperidin-1-yl)-3-(2,2,2-trifluoroethyl)-[1,2,4]triazolo[4,3-b]pyridazine]	20
Cc1c(N2CCC(c3ccccc3)CC2)cnn2c(CC3CC3)nnc12 [Example 6, 3-(Cyclopropylmethyl)-8-methyl-7-(4-phenylpiperidin-1-yl)-[1,2,4]triazolo[4,3-b]pyridazine]	182
Fc1ccc(F)c(C2CCN(c3cnn4c(CC5CC5)nnc4c3Cl)CC2)c1OC(F)F [Example 50, 8-Chloro-3-(cyclopropylmethyl)-7-(4-(2-(difluoromethoxy)-3,6-difluorophenyl)piperidin-1-yl)-[1,2,4]triazolo[4,3-b]pyridazine]	2

SMILES	EC50 [nM]
O=C1Oc2ccccc2C12CCN(c1cnn3c(CC4CC4)nnc3c1Cl)CC2 [Example 62, 1′-(8-Chloro-3-(cyclopropylmethyl)-[1,2,4]triazolo[4,3-b]pyridazin-7-yl)-2H-spiro[benzofuran-3,4′-piperidin]-2-one]	47
Fc1cc(OC(F)F)c(C2CCN(c3cnn4c(CC(F)(F)F)nnc4c3Cl)CC2)cc1F [Example 53, 8-Chloro-7-(4-(2-(difluoromethoxy)-4,5-difluorophenyl)piperidin-1-yl)-3-(2,2,2-trifluoroethyl)-[1,2,4]triazolo[4,3-b]pyridazine]	6
N#Cc1ccccc1C1CCN(c2cnn3c(CC(F)(F)F)nnc3c2C(F)(F)F)CC1 [Example 78, 2-(1-(3-(2,2,2-Trifluoroethyl)-8-(trifluoromethyl)-[1,2,4]triazolo[4,3-b]pyridazin-7-yl)piperidin-4-yl)benzonitrile]	7
COc1ccc(OC)c(C2CCN(c3cnn4c(CC5CC5)nnc4c3Cl)CC2)c1 [Example 35, 8-Chloro-3-(cyclopropylmethyl)-7-(4-(2,5-dimethoxyphenyl)piperidin-1-yl)-[1,2,4]triazolo[4,3-b]pyridazine]	6
Clc1c(N2CCC(c3cccnc3)CC2)cnn2c(CC3CC3)nnc12 [Example 82, 8-Chloro-3-(cyclopropylmethyl)-7-(4-(pyridin-3-yl)piperidin-1-yl)-[1,2,4]triazolo[4,3-b]pyridazine]	809
COc1cc(OC)nc(C2CCN(c3cnn4c(CC(F)(F)F)nnc4c3Cl)CC2)n1 [Example 43, 8-Chloro-7-(4-(4,6-dimethoxypyrimidin-2-yl)piperidin-1-yl)-3-(2,2,2-trifluoroethyl)-[1,2,4]triazolo[4,3-b]pyridazine]	10
CC(C)Cc1nnc2c(Cl)c(N3CCC(c4ccccc4)CC3)cnn12 [Example 58, 8-Chloro-3-isobutyl-7-(4-phenylpiperidin-1-yl)-[1,2,4]triazolo[4,3-b]pyridazine]	201
FC(F)(F)Cc1nnc2c(Cl)c(N3CCC(c4cc(Cl)cc(Cl)c4)CC3)cnn12 [Example 48, 8-Chloro-7-(4-(3,5-dichlorophenyl)piperidin-1-yl)-3-(2,2,2-trifluoroethyl)-[1,2,4]triazolo[4,3-b]pyridazine]	263
COc1ccc(C2CCN(c3cnn4c(CC5CC5)nnc4c3Cl)CC2)c(OC)c1 [Example 37, 8-Chloro-3-(cyclopropylmethyl)-7-(4-(2,4-dimethoxyphenyl)piperidin-1-yl)-[1,2,4]triazolo[4,3-b]pyridazine]	9
FC(F)(F)c1cccnc1C1CCN(c2cnn3c(CC4CC4)nnc3c2Cl)CC1 [Example 76, 8-Chloro-3-(cyclopropylmethyl)-7-(4-(3-(trifluoromethyl)pyridin-2-yl)piperidin-1-yl)-[1,2,4]triazolo[4,3-b]pyridazine]	34
Clc1c(NC2CCC(c3ccccc3)CC2)cnn2c(CC3CC3)nnc12 (centres unmarked) [Example 61, 8-Chloro-3-(cyclopropylmethyl)-N-(4-phenylcyclohexyl)-[1,2,4]triazolo[4,3-b]pyridazin-7-amine]	225
Clc1cccc(C2CCN(c3cnn4c(CC5CC5)nnc4c3Cl)CC2)c1Cl [Example 46, 8-Chloro-3-(cyclopropylmethyl)-7-(4-(2,3-dichlorophenyl)piperidin-1-yl)-[1,2,4]triazolo[4,3-b]pyridazine]	154
COc1ccc(C2CCN(c3cnn4c(CC5CC5)nnc4c3Cl)CC2)cc1 [Example 30, 8-Chloro-3-(cyclopropylmethyl)-7-(4-(4-methoxyphenyl)piperidin-1-yl)-[1,2,4]triazolo[4,3-b]pyridazine]	18
Cc1ccccc1C1CCN(c2cnn3c(CC4CC4)nnc3c2Cl)CC1 [Example 29, 8-Chloro-3-(cyclopropylmethyl)-7-(4-(o-tolyl)piperidin-1-yl)-[1,2,4]triazolo[4,3-b]pyridazine]	21
COc1c(N2CCC(O)(c3ccc(F)cc3)CC2)ncn2c(CC3CC3)nnc12 [Example 14, 1-(3-(Cyclopropylmethyl)-8-methoxy-[1,2,4]triazolo[4,3-c]pyrimidin-7-yl)-4-(4-fluorophenyl)piperidin-4-ol]	782
N#Cc1ccccc1C1CCN(c2cnn3c(CC4CC4)nnc3c2C(F)(F)F)CC1 [Example 77, 2-(1-(3-(Cyclopropylmethyl)-8-(trifluoromethyl)-[1,2,4]triazolo[4,3-b]pyridazin-7-yl)piperidin-4-yl)benzonitrile]	4

Reference: patent US9682980B2, “Positive allosteric modulators of mGluR2” (BRISTOL-MYERS SQUIBB COMPANY, priority 2012, dated 2017)
